Test results published in PubChem BioAssay AID248 (DTP/NCI, 2004).
Where “and” joins values, the source holds several entries; their conditions need not be identical. Equal values may be shown once. Toxic doses and inconclusive results are not listed.

Tested on: L1210 leukemia ip in BDF1 mice, survival T/C
Test: NCI In Vivo Anticancer Drug Screen. Data for tumor model L1210 Leukemia (intraperitoneal) in B6D2F1 (BDF1) mice
Conditions: higher = longer survival
Outline: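 Value reflects the ratio of survival in compound-treated mice to survival in vehicle-treated controls, with both groups carrying the same transplanted tumor.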

[1] = endpoint: mean survival time, dose: 75.0 mg/kg/injection, schedule: Q01DX001 (ip), vehicle: other

With `Nc1ncn(C2OC(CO)C(O)C2O)c(=O)n1` (stereo not given) the T/C (endpoint: mean survival time, dose: 0.12 mg/kg/injection, schedule: Q01DX009 (ip), vehicle: saline) was 111 % of control, the T/C (endpoint: mean survival time, dose: 0.23 mg/kg/injection, schedule: Q01DX009 (ip), vehicle: saline) was 101 % of control and 121 % of control and the T/C (endpoint: mean survival time, dose: 0.5 mg/kg/injection, schedule: Q01DX009 (ip), vehicle: saline) was 156 % of control. The T/C (endpoint: mean survival time, dose: 0.75 mg/kg/injection, schedule: Q01DX009 (ip), vehicle: other) was 161 % of control, the T/C (endpoint: mean survival time, dose: 1.0 mg/kg/injection, schedule: Q01DX005 (oral), vehicle: saline) was 114 % of control and the T/C (endpoint: mean survival time, dose: 1.0 mg/kg/injection, schedule: Q## X008 (ip), vehicle: saline) was 121 % of control. The T/C (endpoint: mean survival time, dose: 1.0 mg/kg/injection, schedule: Q## X040 (oral), vehicle: saline) was 105 % of control, the T/C (endpoint: mean survival time, dose: 1.25 mg/kg/injection, schedule: Q01DX009 (ip), vehicle: saline) was 170 % of control and the T/C (endpoint: mean survival time, dose: 1.3 mg/kg/injection, schedule: Q03HX008 (ip), vehicle: saline) was 171 % of control. The T/C (endpoint: mean survival time, dose: 1.5 mg/kg/injection, schedule: Q01DX005 (ip), vehicle: clinical formulation) was 150 % of control, the T/C (endpoint: mean survival time, dose: 1.5 mg/kg/injection, schedule: Q01DX009 (ip), vehicle: water) was 164 % of control and 166 % of control and the T/C (endpoint: mean survival time, dose: 2.0 mg/kg/injection, schedule: Q01DX005 (oral), vehicle: saline) was 124 % of control. For the same compound, the T/C (endpoint: mean survival time, dose: 2.0 mg/kg/injection, schedule: Q01DX015 (ip), vehicle: other) was 159 % of control, the T/C (endpoint: mean survival time, dose: 2.0 mg/kg/injection, schedule: Q03HX008 (ip), vehicle: saline) was 155 % of control and the T/C (endpoint: mean survival time, dose: 2.0 mg/kg/injection, schedule: Q## X024 (ip), vehicle: saline) was 151 % of control. For the same compound, the T/C (endpoint: mean survival time, dose: 2.0 mg/kg/injection, schedule: Q## X040 (oral), vehicle: saline) was 108 % of control, the T/C (endpoint: mean survival time, dose: 2.3 mg/kg/injection, schedule: Q04DX002 (ip), vehicle: saline) was 117 % of control and 123 % of control and the T/C (endpoint: mean survival time, dose: 2.5 mg/kg/injection, schedule: Q01DX009 (ip), vehicle: carboxymethylcellulose (CMC)) was 155 % of control. For the same compound, the T/C (endpoint: mean survival time, dose: 3.0 mg/kg/injection, schedule: Q01DX001 (ip), vehicle: saline) was 119 % of control, the T/C (endpoint: mean survival time, dose: 3.0 mg/kg/injection, schedule: Q01DX005 (ip), vehicle: water) was 150 % of control and the T/C (endpoint: mean survival time, dose: 3.0 mg/kg/injection, schedule: Q01DX009 (ip), vehicle: saline with Tween-80) was 111 % of control. For the same compound, the T/C (endpoint: mean survival time, dose: 3.0 mg/kg/injection, schedule: Q01DX009 (oral), vehicle: saline) was 158 % of control, the T/C (endpoint: mean survival time, dose: 3.0 mg/kg/injection, schedule: Q03HX008 (ip), vehicle: saline) was 170 % of control and the T/C (endpoint: mean survival time, dose: 3.12 mg/kg/injection, schedule: Q01DX009 (ip), vehicle: saline) was 164 % of control. For the same compound, the T/C (endpoint: mean survival time, dose: 3.12 mg/kg/injection, schedule: Q04DX003 (ip), vehicle: water) was 157 % of control and 160 % of control, the T/C (endpoint: mean survival time, dose: 4.0 mg/kg/injection, schedule: Q## X024 (ip), vehicle: saline) was 168 % of control and the T/C (endpoint: mean survival time, dose: 6.0 mg/kg/injection, schedule: Q01DX005 (ip), vehicle: water) was 112 % of control. The T/C (endpoint: mean survival time, dose: 6.0 mg/kg/injection, schedule: Q01DX009 (ip), vehicle: clinical formulation) was 103 % of control, the T/C (endpoint: mean survival time, dose: 6.0 mg/kg/injection, schedule: Q01DX009 (ip), vehicle: other) was 104 % of control and the T/C (endpoint: mean survival time, dose: 6.0 mg/kg/injection, schedule: Q01DX009 (ip), vehicle: saline) was 98 % of control. For the same compound, the T/C (endpoint: mean survival time, dose: 6.0 mg/kg/injection, schedule: Q01DX009 (ip), vehicle: water) was 94 % of control, the T/C (endpoint: mean survival time, dose: 6.0 mg/kg/injection, schedule: Q01DX009 (oral), vehicle: saline) was 172 % of control and the T/C (endpoint: mean survival time, dose: 6.0 mg/kg/injection, schedule: Q## X008 (ip), vehicle: saline) was 156 % of control. The T/C (endpoint: mean survival time, dose: 7.2 mg/kg/injection, schedule: Q01DX009 (ip), vehicle: saline) was 111 % of control, the T/C (endpoint: mean survival time, dose: 8.0 mg/kg/injection, schedule: Q01DX005 (oral), vehicle: saline) was 164 % of control and the T/C (endpoint: mean survival time, dose: 8.0 mg/kg/injection, schedule: Q## X040 (oral), vehicle: saline) was 163 % of control. The T/C (endpoint: mean survival time, dose: 10.0 mg/kg/injection, schedule: Q01DX009 (ip), vehicle: saline) was 111 % of control, the T/C (endpoint: mean survival time, dose: 12.0 mg/kg/injection, schedule: Q01DX001 (ip), vehicle: saline) was 150 % of control and the T/C (endpoint: mean survival time, dose: 12.0 mg/kg/injection, schedule: Q01DX005 (ip), vehicle: saline) was 168 % of control. The T/C (endpoint: mean survival time, dose: 12.0 mg/kg/injection, schedule: Q01DX009 (ip), vehicle: saline) was 98 % of control, the T/C (endpoint: mean survival time, dose: 12.0 mg/kg/injection, schedule: Q## X008 (ip), vehicle: saline) was 161 % of control and 162 % of control and the T/C (endpoint: mean survival time, dose: 12.5 mg/kg/injection, schedule: Q01DX001 (ip), vehicle: saline) was 164 % of control. For the same compound, the T/C (endpoint: mean survival time, dose: 12.5 mg/kg/injection, schedule: Q01DX005 (ip), vehicle: saline) was 172 % of control, the T/C (endpoint: mean survival time, dose: 22.0 mg/kg/injection, schedule: Q01DX001 (ip), vehicle: other) was 153 % of control and the T/C (endpoint: mean survival time, dose: 22.0 mg/kg/injection, schedule: Q01DX001 (ip), vehicle: saline) was 160 % of control. The T/C (endpoint: mean survival time, dose: 24.0 mg/kg/injection, schedule: Q01DX001 (ip), vehicle: saline) was 158 % of control, the T/C (endpoint: mean survival time, dose: 24.0 mg/kg/injection, schedule: Q01DX009 (ip), vehicle: saline) was 93 % of control and the T/C (endpoint: mean survival time, dose: 24.0 mg/kg/injection, schedule: Q## X008 (ip), vehicle: saline) was 171 % of control. For the same compound, the T/C (endpoint: mean survival time, dose: 25.0 mg/kg/injection, schedule: Q01DX001 (ip), vehicle: saline) was 166 % of control and 168 % of control, the T/C (endpoint: mean survival time, dose: 32.0 mg/kg/injection, schedule: Q01DX001 (oral), vehicle: saline) was 112 % of control and the T/C (endpoint: mean survival time, dose: 32.0 mg/kg/injection, schedule: Q## X003 (oral), vehicle: saline) was 163 % of control. The T/C (endpoint: mean survival time, dose: 32.0 mg/kg/injection, schedule: Q## X024 (oral), vehicle: saline) was 173 % of control, the T/C (endpoint: mean survival time, dose: 33.0 mg/kg/injection, schedule: Q01DX001 (ip), vehicle: saline) was 153 % of control and the T/C (endpoint: mean survival time, dose: 48.0 mg/kg/injection, schedule: Q01DX009 (ip), vehicle: saline) was 102 % of control. The T/C (endpoint: mean survival time, dose: 64.0 mg/kg/injection, schedule: Q01DX001 (oral), vehicle: saline) was 111 % of control, the T/C (endpoint: mean survival time, dose: 64.0 mg/kg/injection, schedule: Q## X003 (oral), vehicle: saline) was 163 % of control and 164 % of control and the T/C (endpoint: mean survival time, dose: 64.0 mg/kg/injection, schedule: Q## X008 (oral), vehicle: saline) was 158 % of control. The T/C (endpoint: mean survival time, dose: 69.0 mg/kg/injection, schedule: Q04DX002 (ip), vehicle: saline) was 150 % of control, the T/C [1] was 168 % of control and the T/C (endpoint: mean survival time, dose: 96.0 mg/kg/injection, schedule: Q01DX001 (ip), vehicle: saline) was 174 % of control. The T/C (endpoint: mean survival time, dose: 96.0 mg/kg/injection, schedule: Q## X003 (ip), vehicle: saline) was 114 % of control, the T/C (endpoint: mean survival time, dose: 100.0 mg/kg/injection, schedule: Q01DX001 (ip), vehicle: other) was 162 % of control and the T/C (endpoint: mean survival time, dose: 125.0 mg/kg/injection, schedule: Q01DX001 (ip), vehicle: saline) was 151 % of control. For the same compound, the T/C (endpoint: mean survival time, dose: 150.0 mg/kg/injection, schedule: Q01DX001 (ip), vehicle: saline) was 154 % of control, the T/C (endpoint: mean survival time, dose: 200.0 mg/kg/injection, schedule: Q01DX001 (ip), vehicle: other) was 118 % of control and the T/C (endpoint: mean survival time, dose: 256.0 mg/kg/injection, schedule: Q## X003 (oral), vehicle: saline) was 171 % of control. For the same compound, the T/C (endpoint: mean survival time, dose: 512.0 mg/kg/injection, schedule: Q## X003 (oral), vehicle: saline) was 111 % of control, the T/C (endpoint: mean survival time, dose: 768.0 mg/kg/injection, schedule: Q01DX001 (oral), vehicle: saline) was 157 % of control and the T/C (endpoint: median survival time, dose: 0.75 mg/kg/injection, schedule: Q01DX009 (ip), vehicle: saline) was 160 % of control. For the same compound, the T/C (endpoint: median survival time, dose: 0.78 mg/kg/injection, schedule: Q01DX009 (ip), vehicle: saline) was 150 % of control, the T/C (endpoint: median survival time, dose: 1.0 mg/kg/injection, schedule: Q01DX005 (ip), vehicle: saline) was 120 % of control and the T/C (endpoint: median survival time, dose: 1.3 mg/kg/injection, schedule: Q01DX009 (ip), vehicle: saline) was 154 % of control and 159 % of control. For the same compound, the T/C (endpoint: median survival time, dose: 2.0 mg/kg/injection, schedule: Q01DX005 (ip), vehicle: saline) was 169 % of control, the T/C (endpoint: median survival time, dose: 3.6 mg/kg/injection, schedule: Q01DX009 (ip), vehicle: saline) was 100 % of control and 104 % of control and the T/C (endpoint: median survival time, dose: 5.0 mg/kg/injection, schedule: Q01DX001 (ip), vehicle: saline) was 121 % of control and 122 % of control. The T/C (endpoint: median survival time, dose: 6.0 mg/kg/injection, schedule: Q01DX009 (ip), vehicle: saline) was 110 % of control, the T/C (endpoint: median survival time, dose: 8.0 mg/kg/injection, schedule: Q01DX005 (ip), vehicle: saline) was 154 % of control and the T/C (endpoint: median survival time, dose: 8.4 mg/kg/injection, schedule: Q01DX009 (ip), vehicle: saline) was 99 % of control and 100 % of control. The T/C (endpoint: median survival time, dose: 40.0 mg/kg/injection, schedule: Q01DX001 (ip), vehicle: saline) was 153 % of control and 155 % of control and the T/C (endpoint: median survival time, dose: 80.0 mg/kg/injection, schedule: Q01DX001 (ip), vehicle: saline) was 151 % of control and 155 % of control.

In the case of `CCCN1CCc2cc(OC)c(OC)cc2C1Cc1ccc(OC)c(OC)c1` (stereo not given), the T/C [1] is reported as 109 % of control and the T/C (endpoint: mean survival time, dose: 150.0 mg/kg/injection, schedule: Q01DX001 (ip), vehicle: other) is reported as 102 % of control.

For `O=C1CCCc2c1[nH]c1ccccc21`, the T/C (endpoint: mean survival time, dose: 100.0 mg/kg/injection, schedule: Q04DX003 (ip), vehicle: saline with Tween-80) was 97 % of control, the T/C (endpoint: mean survival time, dose: 200.0 mg/kg/injection, schedule: Q04DX003 (ip), vehicle: saline with Tween-80) was 98 % of control and the T/C (endpoint: mean survival time, dose: 400.0 mg/kg/injection, schedule: Q04DX003 (ip), vehicle: saline with Tween-80) was 98 % of control.
